Results on 1 compound are retold here after patent US6706738B2, “Substituted bicyclic heteroaryl compounds and their use as integrin antagonists” (Aventis Pharma Limited, priority 1999, dated 2004).

The structures appear in SMILES notation.

What is called melting point is the temperature of the solid-liquid transition.

Take `Cc1ccccc1Nc1nc2ccc(CC(=O)Nc3ccc(C(C)CC(=O)O)nc3)cc2o1` (racemic) [Example 1, (3RS)-3-{5-[2-(2-o-Tolylamino-benzoxazol-6-yl)-acetylamino]-pyrid-2-yl}-butyric acid]: the melting point was 195 to 196 °C (dec.).
